Data on one compound can be found in patent US9951039B2, “Pyrimidines for treatment of bacterial infections” (The Hong Kong Polytechnic University, priority 2016, dated 2018).

≈ marks a conversion by molar mass, not a printed value. Where two headings read alike, the source gives them in different places.

Data set [1] has as its system E. coli strain ATCC25922. Put plainly: MIC, broth microdilution antimicrobial susceptibility test (CLSI). The class given is cell-based. To be noted: Escherichia coli, ATCC25922; E. coli ATCC 25922; growth inhibited by ≥90%, 18 h; read-out: MIC^c: Minimum inhibitory concentration against E. coli. An excerpt:
(§1) This example illustrates the evaluation of 2,4,6-trisubstituted pyrimidines 14 for their antimicrobial activities against the Gram positive S. aureus strain ATCC29213 and the Gram negative E. coli strain ATCC25922 by measuring their MIC, which is the lowest concentration of an antimicrobial agent that prevents visible growth of a microorganism in a broth dilution susceptibility test according to the standard method approved by the Clinical and Laboratory Standards Institute (CLSI) guidelines.^21
(§2) Procedure of Antimicrobial susceptibility test: The MIC value of compounds was measured in the antimicrobial susceptibility test using the broth microdilution procedure in accordance with the CLSI guidelines.^21 Cation-adjusted Mueller Hinton broth (CA-MHB) was used for all the S. aureus strains in the assay. Cells in exponential phase of growth were diluted to approximately 5×10^5 cfu/mL. Stock solutions of each compound were freshly dissolved in dimethyl sulfoxide (DMSO). Then, serial dilutions of each compound in CA-MHB medium were added into 96-well microplate. The final percentage of DMSO in the assay was 1%. Control experiments were performed with 1% DMSO instead of the compound solution. After being incubated at 37° C. for 18 h, OD600 value of cells was measured on a microplate reader and the percentage of bacterial cell inhibition with respect to controls was calculated. The MIC value was defined as the lowest compound concentration at which the growth of bacteria was inhibited by ≥90%. Three independent assays were performed for each compound.
On the technique in general: Dilution methods test growth across graded concentrations, often in twofold steps.

For data set [2], the system named is S. aureus strain ATCC29213. Described as above. The class given is cell-based. The settings on record: for MIC: Staphylococcus aureus.
Description: as §1, §2

Data set [3] relates to G. mellonella larvae. The experiment in a line: Toxicity in G. mellonella larvae. The class given is in vivo, Galleria mellonella. To be noted: 0, 50 and 100 mg/Kg in 50% PEG in saline, no MRSA inoculation, 48-hours period. How it is done:
Procedure: Compound 14av_amine16 was tested in a Galleria mellonella model, which are an easy and inexpensive in vivo model with no ethical constraints for investigating antibacterial activity of a compound.^22 The G. mellonella model of S. aureus infection was used as previously described.^24 Briefly, 1 mL aliquots of overnight cultures of S. aureus 43300 were pelleted by centrifugation and washed with sterile PBS before being resuspended in 100 μL of PBS. G. mellonella larvae (N=10) that weighed 200-300 mg were then inoculated with 10 μL of S. aureus (2.5×10^6 CFU) into the last left proleg. Larvae were then treated with compounds at 1 h before bacterial inoculation. Treatments were performed in the same manner as infection, except that compounds were injected into the next left proleg moving toward the head of the larvae. […] Data was analyzed for statistical significance using a log rank and χ square test with 1 degree of freedom. Various concentrations of compound 14av_amine16 dissolved in 50% PEG in saline (0 mg/Kg, 50 mg/Kg and 100 mg/Kg) were injected into the hemocoel of last-instar G. mellonella larvae and survival was scored over time.
To examine the feasibility of using G. mellonella for compound 14av_amine16 toxicity study, the ability of compound 14av_amine16 to kill G. mellonella larvae was examined.

In data set [4] the test system is FtsZ GFP fusion stain of B. subtilis 168. The experiment in a line: Z-ring visualization, GFP tagged FtsZ in B. subtilis 168. To be noted: 6 μM test compound, 4 hours. In kind it is cell-based. How it is done:
Procedure: A single colony of FtsZ GFP fusion stain of B. subtilis 168 was grown in 5 ml 2×TY medium with 35 mg/L chloramphenicol for 14 hours at 30° C. An overnight culture was then diluted to an OD600 of 0.01 by 2×TY medium containing the absence (DMSO) and presence of 6 μM test compounds and 40 μM of IPTG, it grew at 30° C. after 4 hours of incubation; the cells were pelleted and re-suspended in 300 μL PBS buffer containing 1% agarose. 10 μL suspensions were then placed on the microscopic slide. The morphology of bacterial cell was observed under a fluorescent and phase-contrast microscope at 40× magnification, using the software of Olympus FSX100® Bio Imaging Navigator to capture images.

In the case of `CCC(CC)c1cc(CCN2CCCN(Cc3ccc(C(F)(F)F)cc3)CC2)nc(-c2ccncc2)n1` [Compound 14av_amine16, 1-(2-(6-(pentan-3-yl)-2-(pyridin-4-yl)pyrimidin-4-yl)ethyl)-4-(4-(trifluoromethyl)benzyl)-1,4-diazepane], the MIC in data set [1] was more than 125 µM; in data set [2] (ATCC29213, S. aureus 29213, growth inhibited by ≥90%, 18 h, read-out: MIC^b: Minimum inhibitory concentration against S. aureus), 8 µM (≈ 4.09 µg/mL); in data set [2] (S. aureus ATCC29213, read-out: MIC against S. aureus) it was 5 to 8 µM (≈ 2.56 to 4.09 µg/mL). The “MIC^c/MIC^b: Selectivity index” value in data set [2] (E. coli ATCC 25922 MIC over S. aureus 29213 MIC) is more than 15. The “ability to kill G. mellonella larvae (toxicity)” value in data set [3] is recorded as “did not kill G. mellonella larvae”. In addition, the Z-ring localization result in data set [4] is on record as “obvious mislocalization of the Z-ring”.
